Measurements taken from US6737383B1, “Herbicidal oxadiazolidines” (priority 1999, dated 2004).

Tests used:
bedstraw = experiment: Test B pre/postemergence bedstraw; format: in vivo, Galium aparine
Outline: (§1)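 Response is a visual 0-to-10 score relative to untreated plants, where 0 means no effect and 10 means complete control, taken twelve to sixteen days after application. Treatments went onto soil at planting and onto foliage of 1- to 4-leaf plants, using a surfactant-containing non-phytotoxic solvent.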

blackgrass = experiment: Test B pre/postemergence blackgrass; format: in vivo, Alopecurus myosuroides
Outline: as §1

surinam grass = experiment: Test B pre/postemergence surinam grass; format: in vivo, Brachiaria decumbens
Outline: as §1

cocklebur = experiment: Test B pre/postemergence cocklebur; format: in vivo, Xanthium strumarium
Outline: as §1

corn = experiment: Test B pre/postemergence corn; format: in vivo, Zea mays
Outline: as §1

crabgrass = experiment: Test B pre/postemergence crabgrass; format: in vivo, Digitaria sanguinalis
Outline: as §1

giant foxtail = experiment: Test B pre/postemergence giant foxtail; format: in vivo, Setaria faberii
Outline: as §1

morningglory = experiment: Test B pre/postemergence morningglory; format: in vivo, Ipomoea hederacea
Outline: as §1

pigweed = experiment: Test B pre/postemergence pigweed; format: in vivo, Amaranthus retroflexus
Outline: as §1

rape = experiment: Test B pre/postemergence rape; format: in vivo, Brassica napus
Outline: as §1

sugar beet = experiment: Test B pre/postemergence sugar beet; format: in vivo, Beta vulgaris
Outline: as §1

velvetleaf = experiment: Test B pre/postemergence velvetleaf; format: in vivo, Abutilon theophrasti
Outline: as §1

wild oat = experiment: Test B pre/postemergence wild oat; format: in vivo, Avena fatua
Outline: as §1

rice = experiment: Test B flood test rice; format: in vivo, Oryza sativa
Outline: (§2)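 Plants were grown to the 2-leaf stage before treatment with test chemical, then held in a greenhouse for twelve to sixteen days. Injury was visually rated against untreated controls on a 0–10 scale, where 0 is no effect and 10 is complete control.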

smallflower flatsedge = experiment: Test B flood test smallflower flatsedge; format: in vivo, Cyperus difformis
Outline: as §2

bamyardgrass = experiment: Test B flood test barnyardgrass; format: in vivo, Echinochloa crus-galli
Outline: as §2

[1] = Preemergence, Rate 31 g/ha, visual rating, scale 0 to 10 (0 no effect, 10 complete control)
[2] = Preemergence, Rate 62 g/ha, scale of 0 to 10 where 0 is no effect and 10 is complete control
[3] = Preemergence, Rate 250 g/ha, scale of 0 to 10 where 0 is no effect and 10 is complete control
[4] = Rate 31 g/ha, Postemergence, scale 0 to 10
[5] = Rate 62 g/ha, Postemergence, scale 0 to 10, 0 no effect, 10 complete control
[6] = Rate 125 g/ha, Postemergence, scale of 0 to 10 where 0 is no effect and 10 is complete control
[7] = Rate 125 g/ha, Preemergence, scale of 0 to 10 where 0 is no effect and 10 is complete control
[8] = Rate 250 g/ha, Postemergence, scale of 0 to 10 where 0 is no effect and 10 is complete control
[9] = Rate 31 g/ha, Pre-emergence section (flood test species), scale 0 to 10
[10] = Rate 62 g/ha, headed Pre-emergence (flood test species), scale 0 to 10 (0 no effect, 10 complete control)
[11] = Rate 125 g/ha, Pre-emergence, flood test species, scale 0 to 10 where 0 is no effect and 10 is complete control
[12] = Rate 250 g/ha, Pre-emergence, flood-test species, scale 0 to 10, 0 is no effect, 10 is complete control

CC(Cl)=CCn1c(=O)on(C(=O)N(c2ccc(F)cc2)C(C)C)c1=O [Compound 285]
Bedstraw plant response rating (bedstraw; [1]): 0 | Bedstraw plant response rating (bedstraw; [2]): 0 | Bedstraw plant response rating (bedstraw; [3]): 8 | Bedstraw plant response rating (bedstraw; [4]): 0 | Bedstraw plant response rating (bedstraw; [5]): 0 | Bedstraw plant response rating (bedstraw; [6]): 5 | Bedstraw plant response rating (bedstraw; [7]): 0 | Plant response rating, Bedstraw (bedstraw; [8]): 7 | Blackgrass plant response rating (blackgrass; [1]): 0 | Blackgrass plant response rating (blackgrass; [2]): 0 | Blackgrass plant response rating (blackgrass; [3]): 5 | Blackgrass plant response rating (blackgrass; [4]): 0 | Blackgrass plant response rating (blackgrass; [5]): 0 | Blackgrass plant response rating (blackgrass; [6]): 2 | Blackgrass plant response rating (blackgrass; [7]): 4 | Plant response rating, Blackgrass (blackgrass; [8]): 7 | B. signalgrass plant response rating (surinam grass; [1]): 0 | B. signalgrass plant response rating (surinam grass; [2]): 2 | B. signalgrass plant response rating (surinam grass; [3]): 10 | B. signalgrass plant response rating (surinam grass; [4]): 0 | B. signalgrass plant response rating (surinam grass; [5]): 0 | B. signalgrass plant response rating (surinam grass; [6]): 0 | B. signalgrass plant response rating (surinam grass; [7]): 5 | Plant response rating, B. signalgrass (surinam grass; [8]): 0 | Cocklebur plant response rating (cocklebur; [1]): 0 | Cocklebur plant response rating (cocklebur; [2]): 0 | Cocklebur plant response rating (cocklebur; [3]): 0 | Cocklebur plant response rating (cocklebur; [4]): 0 | Cocklebur plant response rating (cocklebur; [5]): 0 | Cocklebur plant response rating (cocklebur; [6]): 0 | Cocklebur plant response rating (cocklebur; [7]): 0 | Plant response rating, Cocklebur (cocklebur; [8]): 0 | Corn plant response rating (corn; [1]): 0 | Corn plant response rating (corn; [2]): 0 | Corn plant response rating (corn; [3]): 0 | Corn plant response rating (corn; [4]): 0 | Corn plant response rating (corn; [5]): 0 | Corn plant response rating (corn; [6]): 0 | Corn plant response rating (corn; [7]): 0 | Plant response rating, Corn (corn; [8]): 0 | Crabgrass plant response rating (crabgrass; [1]): 0 | Crabgrass plant response rating (crabgrass; [2]): 4 | Crabgrass plant response rating (crabgrass; [3]): 8 | Crabgrass plant response rating (crabgrass; [4]): 0 | Crabgrass plant response rating (crabgrass; [5]): 0 | Crabgrass plant response rating (crabgrass; [6]): 3 | Crabgrass plant response rating (crabgrass; [7]): 8 | Plant response rating, Crabgrass (crabgrass; [8]): 7 | Giant foxtail plant response rating (giant foxtail; [1]): 7 | Giant foxtail plant response rating (giant foxtail; [2]): 8 | Giant foxtail plant response rating (giant foxtail; [3]): 10 | Giant foxtail plant response rating (giant foxtail; [4]): 0 | Giant foxtail plant response rating (giant foxtail; [5]): 0 | Giant foxtail plant response rating (giant foxtail; [6]): 0 | Giant foxtail plant response rating (giant foxtail; [7]): 9 | Plant response rating, Giant foxtail (giant foxtail; [8]): 0 | Morningglory plant response rating (morningglory; [1]): 0 | Morningglory plant response rating (morningglory; [2]): 0 | Morningglory plant response rating (morningglory; [3]): 0 | Morningglory plant response rating (morningglory; [4]): 1 | Morningglory plant response rating (morningglory; [5]): 3 | Morningglory plant response rating (morningglory; [6]): 5 | Morningglory plant response rating (morningglory; [7]): 0 | Plant response rating, Morningglory (morningglory; [8]): 5 | Redroot pigweed plant response rating (pigweed; [1]): 0 | Redroot pigweed plant response rating (pigweed; [2]): 0 | Redroot pigweed plant response rating (pigweed; [3]): 5 | Redroot pigweed plant response rating (pigweed; [4]): 0 | Redroot pigweed plant response rating (pigweed; [5]): 0 | Redroot pigweed plant response rating (pigweed; [6]): 0 | Redroot pigweed plant response rating (pigweed; [7]): 2 | Plant response rating, Redroot pigweed (pigweed; [8]): 0 | Rape plant response rating (rape; [1]): 0 | Rape plant response rating (rape; [2]): 0 | Rape plant response rating (rape; [3]): 3 | Rape plant response rating (rape; [4]): 0 | Rape plant response rating (rape; [5]): 0 | Rape plant response rating (rape; [6]): 0 | Rape plant response rating (rape; [7]): 0 | Plant response rating, Rape (rape; [8]): 0 | Sugarbeets plant response rating (sugar beet; [1]): 0 | Sugarbeets plant response rating (sugar beet; [2]): 0 | Sugarbeets plant response rating (sugar beet; [3]): 0 | Sugarbeets plant response rating (sugar beet; [5]): 0 | Sugarbeets plant response rating (sugar beet; [6]): 2 | Sugarbeets plant response rating (sugar beet; [7]): 0 | Plant response rating, Sugarbeets (sugar beet; [8]): 3 | Velvetleaf plant response rating (velvetleaf; [1]): 0 | Velvetleaf plant response rating (velvetleaf; [2]): 0 | Velvetleaf plant response rating (velvetleaf; [3]): 3 | Velvetleaf plant response rating (velvetleaf; [5]): 0 | Velvetleaf plant response rating (velvetleaf; [6]): 0 | Velvetleaf plant response rating (velvetleaf; [7]): 2 | Plant response rating, Velvetleaf (velvetleaf; [8]): 1 | Wild oats plant response rating (wild oat; [1]): 0 | Wild oats plant response rating (wild oat; [2]): 0 | Wild oats plant response rating (wild oat; [3]): 3 | Wild oats plant response rating (wild oat; [5]): 0 | Wild oats plant response rating (wild oat; [6]): 0 | Plant response rating, Wild oats (wild oat; [8]): 0 | Rice plant response rating (rice; [9]): 0 | Rice plant response rating (rice; [10]): 0 | Rice plant response rating (rice; [11]): 0 | Rice plant response rating (rice; [12]): 0 | S. Flatsedge plant response rating (smallflower flatsedge; [9]): 0 | S. Flatsedge plant response rating (smallflower flatsedge; [10]): 0 | S. Flatsedge plant response rating (smallflower flatsedge; [11]): 0 | S. Flatsedge plant response rating (smallflower flatsedge; [12]): 0 | Barnyardgrass plant response rating (bamyardgrass; [9]): 0 | Barnyardgrass plant response rating (bamyardgrass; [10]): 0 | Barnyardgrass plant response rating (bamyardgrass; [11]): 0 | Barnyardgrass plant response rating (bamyardgrass; [12]): 7
